According to patent US9777002B2, “Inhibitors of the renal outer medullary potassium channel” (Merck Sharp & Dohme Corp., priority 2012, dated 2017):
pIC50: −log10 of the molar value.

Biological target: T1, hROMK (hKir1.1) (Homo sapiens, UniProt P48048)
T1 construct: expressed in transfected cells
T1 sequence (P48048 1-391): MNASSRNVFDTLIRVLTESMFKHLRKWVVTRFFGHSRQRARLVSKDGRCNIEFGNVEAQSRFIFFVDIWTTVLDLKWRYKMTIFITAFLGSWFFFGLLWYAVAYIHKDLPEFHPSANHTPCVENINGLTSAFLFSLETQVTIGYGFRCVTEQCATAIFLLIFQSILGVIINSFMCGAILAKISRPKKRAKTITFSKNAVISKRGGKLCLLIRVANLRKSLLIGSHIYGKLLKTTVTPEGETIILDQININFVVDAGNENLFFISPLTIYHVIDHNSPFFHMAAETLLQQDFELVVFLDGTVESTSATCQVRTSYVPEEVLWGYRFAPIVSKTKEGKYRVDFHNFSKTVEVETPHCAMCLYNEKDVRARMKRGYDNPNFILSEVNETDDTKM
Assay: Thallium Flux Assay
Assay type: cell-based
Settings: HEK293 cells stably expressing hROMK (hKir1.1)
Protocol: Cell Culture Conditions—HEK293 cells stably expressing hROMK (hKir1.1) were grown at 37° C. in a 10% CO2 humidified incubator in complete growth media: Dulbecco's Modified Eagle Medium supplemented with non-essential amino acids, Penicillin/Streptomycin/Glutamine, G418 and FBS. At >80% confluency, aspirate the media from the flask and rinse with 10 mL Calcium/Magnesium-free PBS. Add 5 mL of 1× trypsin (prepared in Ca/Mg Free PBS) to T-225 flask and return flask to 37° C./CO2 incubator for 2-3 minutes. To dislodge the cell, gently bang the side of the flask with your hand. Triturate the cells completely and then transfer the cells to 25 mL complete media. Centrifuge at 1,500 rpm for 6 min followed by resuspension in complete growth media and determine cell concentration. For typical re-seeding, 4E6 cells/T-225 flask will attain >80% confluency in 4 days. Under ideal growth conditions and appropriate tissue culture practices, this cell line is stable for 40-45 passages.
FluxOR Kit Components (Invitrogen F10017)
• FluxOR™ Reagent (Component A) • FluxOR™ Assay Buffer (Component B)—10× Concentrate • PowerLoad™ Concentrate (Component C)—100× Concentrate • Probenecid (Component D)—Lyophilized sample is kept at −20° C. Water soluble, 100× after solubilization in 1 mL water. Store at 4° C. • FluxOR™ Chloride-free Buffer (Component E)—5× Concentrate • Potassium sulfate (K2SO4) Concentrate (Component F)—125 mM in water. Store at 4° C. • Thallium sulfate (Tl2SO4) Concentrate (Component G)—50 mM in water. Store at 4° C. • DMSO (dimethyl sulfoxide, Component H)—1 mL (100%) Reagent Preparation: FluxOR Working Solutions • 1000× FluxOR™ Reagent: Reconstitute a vial of component A in 100 μl DMSO; Mix well; Store 10 μl aliquots at −20° C. • 1× FluxOR™ Assay Buffer: Dilute Component B 10-fold with water; Adjust pH to 7.4 with Hepes/NaOH; Filter and store at 4° C. • Probenecid/Assay Buffer: 100 mL of 1× FluxOR™ Assay Buffer; 1 mL of reconstituted component D; Store at 4° C. • Loading Buffer (per microplate): 10 μl 1000× FluxOR™ Reagent; 100 μl component C; 10 mL Probenecid/Assay Buffer • Compound Buffer (per microplate): 20 mL Probenecid/Assay Buffer; 0.3 mM ouabain (10 mM ouabain in water can be stored in amber bottle/aluminum foil at room temperature); Test compound • 1× FluxOR™ Chloride-Free Buffer: Prepare 1× working solution in water. Can be stored at room temperature • Stimulant Buffer (prepared at 5× final concentration in 1× FluxOR™Chloride-Free Buffer): 7.5 mM Thallium sulfate and 0.75 mM Potassium sulfate (to give a final assay concentration of 3 mM Thallium/0.3 mM Potassium). Store at 4° C. when not in use. If kept sterile, this solution is good for months.
Assay Protocol—The ROMK channel functional thallium flux assay is performed in 384 wells, using the FLIPR-Tetra instrument. HEK-hKir1.1 cells are seeded in Poly-D-Lysine microplates and kept in a 37° C.-10% CO2 incubator overnight. On the day of the experiment, the growth media is replaced with the FluxOR™ reagent loading buffer and incubated, protected from light, at ambient temperature (23-25° C.) for 90 min. The loading buffer is replaced with assay buffer± test compound followed by 30 min incubation at ambient temperature, where the Thallium/Potassium stimulant is added to the microplate.
• 1. Seed HEK-hKir1.1 cells (50 μl at 20,000 cells/well) in 384-well PDL coated Microplates • 2. Allow cells to adhere overnight in humidified 37° C./10% CO2 incubator • 3. Completely remove cell growth media from microplate and replace with 25 μl loading buffer • 4. Incubate Microplate at room temperature, protected form light, for 90 min • 5. Remove loading buffer and replace with 25 μl 1× Assay Buffer±test compound. • 6. Incubate microplate at room temperature, protected from light, for 30 min • 7. At FLIPR-Tetra 384: Add stimulant (Thallium/Potassium) solution to microplate and monitor fluorescence. Excitation=400 nm, Emission=460 & 580 nm. Collect data for ˜10 min. […]

Row | Compound | pIC50
1 | Cc1c(C(O)CN2CCC(NC(=O)c3ccc4c(c3)COC4=O)CC2)ccc(F)c1C#N (stereo not shown) [Example 13, N-(1-(2-(3-Cyano-4-fluoro-2-methylphenyl)-2-hydroxyethyl)piperidin-4-yl)-1-oxo-1,3-dihydroisobenzofuran-5-carboxamide] | 6.46
2 | COc1cc(C(=O)NC2CCN(CC(O)c3ccc(F)c(C#N)c3C)CC2)ccc1C#N (stereo not shown) [Example 14, 4-Cyano-N-(1-(2-(3-cyano-4-fluoro-2-methylphenyl)-2-hydroxyethyl)piperidin-4-yl)-3-methoxybenzamide] | 7.15
3 | Cc1c(CCN2CCC(NC(=O)c3ccnc(-n4cnnn4)c3)CC2)ccc2c1COC2=O [Example 15, N-(1-(2-(4-Methyl-1-oxo-1,3-dihydroisobenzofuran-5-yl)ethyl)piperidin-4-yl)-2-(1H-tetrazol-1-yl)isonicotinamide] | 6.35
4 | Cc1c(C(O)CN2CCC(NC(=O)c3ccc(C#N)c(F)c3)CC2)ccc2c1COC2=O (stereo not shown) [Example 16, 4-Cyano-3-fluoro-N-(1-(2-hydroxy-2-(4-methyl-1-oxo-1,3-dihydroisobenzofuran-5-yl)ethyl)piperidin-4-yl)benzamide] | 7.30
5 | COc1cc(F)c(C#N)cc1C(=O)NC1CCN(CCc2ccc3c(c2C)COC3=O)CC1 [Example 17, 5-Cyano-4-fluoro-2-methoxy-N-(1-(2-(4-methyl-1-oxo-1,3-dihydroisobenzofuran-5-yl)ethyl)piperidin-4-yl)benzamide] | 7.52
6 | Cc1cc(F)c(C(=O)NC2CCN(CCc3ccc4c(c3C)COC4=O)CC2)cc1C#N [Example 18, 5-Cyano-2-fluoro-4-methyl-N-(1-(2-(4-methyl-1-oxo-1,3-dihydroisobenzofuran-5-yl)ethyl)piperidin-4-yl)benzamide] | 6.02
7 | Cc1cc(C(=O)NC2CCN(CCc3ccc4c(c3C)COC4=O)CC2)ncc1C#N [Example 19, 5-Cyano-4-methyl-N-(1-(2-(4-methyl-1-oxo-1,3-dihydroisobenzofuran-5-yl)ethyl)piperidin-4-yl)picolinamide] | 7.30
8 | COc1cc(F)c(C#N)cc1C(=O)NC1CCN(C[C@H](O)c2ccc3c(c2C)COC3=O)CC1 [Example 20, (R)-5-Cyano-4-fluoro-N-(1-(2-hydroxy-2-(4-methyl-1-oxo-1,3-dihydroisobenzofuran-5-yl)ethyl)piperidin-4-yl)-2-methoxybenzamide] | 7.15
9 | COc1cc(F)c(C#N)cc1C(=O)NC1CCN(C[C@@H](O)c2ccc3c(c2C)COC3=O)CC1 [Example 21, (S)-5-Cyano-4-fluoro-N-(1-(2-hydroxy-2-(4-methyl-1-oxo-1,3-dihydroisobenzofuran-5-yl)ethyl)piperidin-4-yl)-2-methoxybenzamide] | 6.82

Second part, the compound after the results:

Row | pIC50 | Compound
10 | 7.70 | Cc1cc(C(=O)NC2CCN(C[C@H](O)c3ccc4c(c3C)COC4=O)CC2)ncc1C#N [Example 22, (R)-5-cyano-N-(1-(2-hydroxy-2-(4-methyl-1-oxo-1,3-dihydroisobenzofuran-5-yl)ethyl)piperidin-4-yl)-4-methylpicolinamide]
11 | 6.14 | Cc1cc(C(=O)NC2CCN(C[C@@H](O)c3ccc4c(c3C)COC4=O)CC2)ncc1C#N [Example 23, (S)-5-cyano-N-(1-(2-hydroxy-2-(4-methyl-1-oxo-1,3-dihydroisobenzofuran-5-yl)ethyl)piperidin-4-yl)-4-methylpicolinamide]
12 | 6.82 | Cc1c([C@@H](O)CN2CCC(NC(=O)c3ccc(C#N)nc3)CC2)ccc2c1COC2=O [Example 24, (R)-6-Cyano-N-(1-(2-hydroxy-2-(4-methyl-1-oxo-1,3-dihydroisobenzofuran-5-yl)ethyl)piperidin-4-yl)nicotinamide]
13 | 7.52 | Cc1cc(C(=O)NC2CCN(C[C@H](O)c3ccc4c(c3C)COC4=O)CC2)ccc1C#N [Example 25, (R)-4-Cyano-N-(1-(2-hydroxy-2-(4-methyl-1-oxo-1,3-dihydroisobenzofuran-5-yl)ethyl)piperidin-4-yl)-3-methylbenzamide]
14 | 7.15 | CCOc1cc(C#N)ccc1C(=O)NC1CCN(C[C@H](O)c2ccc3c(c2C)COC3=O)CC1 [Example 26, (R)-4-Cyano-2-ethoxy-N-(1-(2-hydroxy-2-(4-methyl-1-oxo-1,3-dihydroisobenzofuran-5-yl)ethyl)piperidin-4-yl)benzamide]
15 | 7.52 | Cc1c([C@@H](O)CN2CCC(NC(=O)c3ccc(C#N)cc3)CC2)ccc2c1COC2=O [Example 27, (R)-4-Cyano-N-(1-(2-hydroxy-2-(4-methyl-1-oxo-1,3-dihydroisobenzofuran-5-yl)ethyl)piperidin-4-yl)benzamide]
16 | 7.52 | Cc1c([C@@H](O)CN2CCC(NC(=O)c3ccc(C#N)cn3)CC2)ccc2c1COC2=O [Example 28, (R)-5-Cyano-N-(1-(2-hydroxy-2-(4-methyl-1-oxo-1,3-dihydroisobenzofuran-5-yl)ethyl)piperidin-4-yl)picolinamide]
17 | 6.92 | Cc1c(CCN2CCC(NC(=O)c3cccc(-n4cnnn4)c3)CC2)ccc2c1COC2=O [Example 30, N-(1-(2-(4-Methyl-1-oxo-1,3-dihydroisobenzofuran-5-yl)ethyl)piperidin-4-yl)-3-(1H-tetrazol-1-yl)benzamide]
18 | 7.00 | Cc1c(CCN2CCC(NC(=O)c3ccc(-n4cccn4)cc3)CC2)ccc2c1COC2=O [Example 31, N-(1-(2-(4-Methyl-1-oxo-1,3-dihydroisobenzofuran-5-yl)ethyl)piperidin-4-yl)-4-(1H-pyrazol-1-yl)benzamide]
19 | 6.32 | Cc1c(CCN2CCC(NC(=O)c3cc(C#N)cs3)CC2)ccc2c1COC2=O [Example 32, 4-Cyano-N-(1-(2-(4-methyl-1-oxo-1,3-dihydroisobenzofuran-5-yl)ethyl)piperidin-4-yl)thiophene-2-carboxamide]
20 | 7.22 | Cc1c([C@@H](O)CN2CC3C(C2)C3NC(=O)c2ccc(C#N)cn2)ccc2c1COC2=O (stereo partly drawn) [Example 33, 5-Cyano-N-(3-((R)-2-hydroxy-2-(4-methyl-1-oxo-1,3-dihydroisobenzofuran-5-yl)ethyl)-3-azabicyclo[3.1.0]hexan-6-yl)picolinamide]
21 | 6.64 | Cc1c([C@@H](O)CN2CCC(NC(=O)c3ccc(-n4cnnn4)cc3)CC2)ccc2c1COC2=O [Example 34, (R)-N-(1-(2-Hydroxy-2-(4-methyl-1-oxo-1,3-dihydroisobenzofuran-5-yl)ethyl)piperidin-4-yl)-4-(1H-tetrazol-1-yl)benzamide]
22 | 7.22 | Cc1c([C@@H](O)CN2CCC(NC(=O)c3ccc(-c4ccon4)cc3)CC2)ccc2c1COC2=O [Example 35, (R)-N-(1-(2-Hydroxy-2-(4-methyl-1-oxo-1,3-dihydroisobenzofuran-5-yl)ethyl)piperidin-4-yl)-4-(isoxazol-3-yl)benzamide]
